We go through 24 molecules from ChEMBL document CHEMBL1130738, “Rational design of boropeptide thrombin inhibitors: beta, beta-dialkyl-phenethylglycine P2 analogs of DuP 714 with greater selectivity over complement factor I and an improved safety profile” (Bioorg Med Chem Lett, 1998).

The source made the active and inactive calls. The rule behind the calls is not given here. Bounds are passed on as bounds.

One test deals with Coagulation factor X (Homo sapiens, UniProt P00742). Nature of the test: Binding affinity towards coagulation factor Xa.
In the next test the target is Prothrombin (Homo sapiens, UniProt P00734). Put plainly: Binding affinity towards thrombin was tested.
The nature of test [1]: Inhibition of Coagulation factor I.
In test [2] the test system is Rattus norvegicus. Put plainly: Alanine transaminase level was measured in rats after administration intravenously at a dose(bolus) of 20 umol/kg. Format: functional, organism-based. More on the design: unit not given here.
Test [3] is described as follows: Selectivity ratio for binding to factor I (IC50) and thrombin (Ki).
The target in test [4] is Thrombin and coagulation factor X (Homo sapiens) (UniProt P00734+P00742). Nature of the test: Selectivity ratio for binding to factor Xa (Ki) and thrombin (Ki). The test is classed as protein assay.
For test [5], the system named is Rattus norvegicus. Put plainly: Effect of factor I selectivity on hypotension was evaluated in rats after administration intravenously at a dose(bolus) of 2 umol/kg. The test is classed as functional.
Test [6] relates to Rattus norvegicus. Put plainly: Effect of factor I selectivity on hypotension was evaluated in rats after administration intravenously at a dose(bolus) of 20umol/Kg, activity expressed as drop in blood pressure; No effect. Format: functional, organism-based.
The subject of test [7] is Rattus norvegicus. Nature of the test: Effect of factor I selectivity on hypotension was evaluated in rats after administration intravenously at a dose(bolus) of 20umol/Kg, activity expressed as drop in blood pressure. Format: functional.

Thrombin and coagulation factor X (Homo sapiens), sequence (P00742 whole entry, looked up, other chains not shown): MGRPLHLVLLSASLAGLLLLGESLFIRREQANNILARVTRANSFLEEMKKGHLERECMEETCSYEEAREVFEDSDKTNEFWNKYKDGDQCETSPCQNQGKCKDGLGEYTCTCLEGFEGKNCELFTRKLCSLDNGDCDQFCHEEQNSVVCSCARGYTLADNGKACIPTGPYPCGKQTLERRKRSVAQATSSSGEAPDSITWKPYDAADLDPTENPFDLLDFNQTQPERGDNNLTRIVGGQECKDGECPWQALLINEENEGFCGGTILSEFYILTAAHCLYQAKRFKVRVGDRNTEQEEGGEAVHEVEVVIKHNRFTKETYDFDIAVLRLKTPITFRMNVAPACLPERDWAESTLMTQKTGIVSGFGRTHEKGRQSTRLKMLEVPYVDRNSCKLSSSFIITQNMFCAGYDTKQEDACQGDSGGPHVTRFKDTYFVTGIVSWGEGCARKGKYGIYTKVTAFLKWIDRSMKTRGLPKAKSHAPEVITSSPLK
Coagulation factor X, sequence (P00742 41-179 limits assumed): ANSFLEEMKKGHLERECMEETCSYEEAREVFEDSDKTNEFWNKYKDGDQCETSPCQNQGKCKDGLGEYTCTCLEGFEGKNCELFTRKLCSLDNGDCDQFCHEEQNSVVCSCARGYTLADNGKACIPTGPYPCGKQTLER
Coagulation factor X, sequence (P00742 235-488 limits assumed): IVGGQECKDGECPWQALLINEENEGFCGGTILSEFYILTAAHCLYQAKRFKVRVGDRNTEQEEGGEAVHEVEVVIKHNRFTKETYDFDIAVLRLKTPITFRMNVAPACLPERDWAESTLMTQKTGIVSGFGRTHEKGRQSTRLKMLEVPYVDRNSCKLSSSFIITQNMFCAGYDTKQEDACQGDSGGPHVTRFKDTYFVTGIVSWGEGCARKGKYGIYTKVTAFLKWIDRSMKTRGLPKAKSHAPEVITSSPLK

Consider `CC(C)(CN(CC(=O)NC(CCCNC=N)B(O)O)C(=O)CCc1ccccc1)c1ccccc1` (stereo unspecified), for which the values for the Ki on Coagulation factor X and on Prothrombin were 80 nM and 1.2 nM, respectively.
In [1], `NCCCCC(NC(=O)CN(CCc1ccccc1)C(=O)CCc1ccccc1)B(O)O` (stereo unspecified) yielded an IC50 of 1500 nM. Moreover, the Ki at Coagulation factor X is 130 nM; at Prothrombin, 0.42 nM. The Level in the test with Rattus norvegicus [2] was found to be 60. Also, the Ratio in [3] is 3570; in test [4], 310.
Take `Cc1cc(C)cc(CCN(CC(=O)NC(CCCCN)B(O)O)C(=O)CCc2ccccc2)c1` (stereo unspecified): 170 nM corresponded to half-maximal inhibition in [1] (IC50). The Ki turned out to be 54 nM at Coagulation factor X and 0.28 nM on Prothrombin. Further, the Ratio in test [3] came to 607; in [4], 193.
Molecule `Cc1cc(C)cc(CCN(CC(=O)NC(CCC/N=C/N)B(O)O)C(=O)CCc2ccccc2)c1` (stereo unspecified) yielded an IC50 in [1] of 400 nM. Further, the results for the Ratio in test [3] and in [4] were 1080 and 81, respectively.
As for `CC(C)(CN(CC(=O)NC(CCCCN)B(O)O)C(=O)CCc1ccccc1)c1ccccc1` (stereo unspecified), the IC50 in test [1] was determined as 1300 nM. In addition, the Ki at Coagulation factor X was 320 nM; on Prothrombin, 0.36 nM. The molecule further returned a Level in the test on Rattus norvegicus [2] of 53. Also, the results for the Ratio in test [3] and in test [4] were 3610 and 889, respectively.
As to `N=CNCCCC(NC(=O)CN(CC1(c2ccccc2)CC1)C(=O)CCc1ccccc1)B(O)O` (stereo unspecified), the Ki on Coagulation factor X was 300 nM; on Prothrombin, 0.83 nM.
Turning to `Cc1cc(C)cc(C(C)(C)CN(CC(=O)NC(CCCCN)B(O)O)C(=O)CCc2ccccc2)c1` (stereo unspecified), half-maximal inhibition in [1] (IC50) was put at 2450 nM. The Ki on Coagulation factor X amounted to 810 nM; at Prothrombin, 0.41 nM. In addition, in the test on Rattus norvegicus [2], the Level is 78. The Ratio turned out to be 5980 in test [3] and 1980 in test [4].
Molecule `CC(=O)N[C@H](Cc1ccccc1)C(=O)N1CCC[C@H]1C(=O)N[C@@H](CCCN=C(N)N)B(O)O.Cl` displayed an IC50 in [1] of 10 nM. The molecule further displayed a BP in the test with Rattus norvegicus [5] of over 40 mmHg.
Regarding `N=CNCCCC(NC(=O)CN(CC1(c2ccccc2)CCCC1)C(=O)CCc1ccccc1)B(O)O` (stereo unspecified), the inhibition constant Ki on Coagulation factor X amounted to 630 nM; on Prothrombin, 3 nM.
The molecule `NCCCCC(NC(=O)CN(CC1(c2ccccc2)CC1)C(=O)CCc1ccccc1)B(O)O` (stereo unspecified) had an IC50 in test [1] of 4300 nM. Moreover, the Ki was found to be 438 nM on Coagulation factor X and 0.43 nM on Prothrombin. In addition, the Level in the test with Rattus norvegicus [2] came to 60. The Ratio in test [3] amounted to 10000; in test [4], 1020.
In the case of `NCCCCC(NC(=O)CN(CC1(c2ccccc2)CCCC1)C(=O)CCc1ccccc1)B(O)O` (stereo unspecified), the IC50 in test [1] turned out to be 19000 nM. In addition, the Ki at Coagulation factor X amounted to 1390 nM; at Prothrombin, 2.4 nM. This molecule registered a Level in the test with Rattus norvegicus [2] of 66. Further, the Ratio was determined as 7920 in test [3] and 579 in test [4].
In the case of `Cc1cc(C)cc(C(C)(C)CN(CC(=O)NC(CCC/N=C/N)B(O)O)C(=O)CCc2ccccc2)c1` (stereo unspecified), the IC50 in [1] was 2390 nM. The Ki was found to be 392 nM on Coagulation factor X and 0.53 nM on Prothrombin. The same molecule registered a Level in the test with Rattus norvegicus [2] of 70. The Ratio turned out to be 4510 in test [3] and 740 in test [4].
As for `N=CNCCCC(NC(=O)CN(CCc1ccccc1)C(=O)CCc1ccccc1)B(O)O` (stereo unspecified), the Ki is 22 nM on Coagulation factor X and 0.89 nM at Prothrombin.
In [1], `N=C(N)NCCCC(NC(=O)CN(CC1(c2ccccc2)CC1)C(=O)CCc1ccccc1)B(O)O` (stereo unspecified) gave an IC50 of 540 nM. Besides, the Ki is 46 nM at Coagulation factor X and 0.06 nM at Prothrombin. The BP result in the test with Rattus norvegicus [6] is “inactive”. Further, the Level in the test on Rattus norvegicus [2] came out at 89. Moreover, the Ratio in test [3] turned out to be 9000; in test [4], 767.
`CC(C)(CN(CC(=O)NC(CCC/N=C/N)B(O)O)C(=O)CCc1ccccc1)c1ccccc1` (stereo unspecified) showed an IC50 in test [1] of 6900 nM. Further, the Level in the test on Rattus norvegicus [2] was 70. In addition, the Ratio in [3] came out at 5750; in [4], 67.
Regarding `Cc1cc(C)cc(CCN(CC(=O)NC(CCCNC(=N)N)B(O)O)C(=O)CCc2ccccc2)c1` (stereo unspecified), the Ki on Coagulation factor X stood at 15 nM; at Prothrombin, 0.58 nM.
For the molecule `N/C=N/CCCC(NC(=O)CN(CC1(c2ccccc2)CCCC1)C(=O)CCc1ccccc1)B(O)O` (stereo unspecified), in test [1], the IC50 is over 50000 nM. Besides, the Level in the test with Rattus norvegicus [2] amounted to 60. For the same molecule, the Ratio was over 16700 in test [3] and 210 in test [4].
Regarding `CC(C)(CN(CC(=O)NC(CCCNC(=N)N)B(O)O)C(=O)CCc1ccccc1)c1ccccc1` (stereo unspecified), the Ki on Coagulation factor X amounted to 99 nM; on Prothrombin, 0.06 nM.
For `Cc1cc(C)cc(C(C)(C)CN(CC(=O)NC(CCCN=C(N)N)B(O)O)C(=O)CCc2ccccc2)c1` (stereo unspecified), the IC50 in test [1] was 320 nM. The Ki on Coagulation factor X came out at 62 nM; at Prothrombin it was 0.3 nM. Further, the Ratio in test [3] was 1070; in test [4], 207.
Take `N/C=N/CCCC(NC(=O)CN(CC1(c2ccccc2)CC1)C(=O)CCc1ccccc1)B(O)O` (stereo unspecified): the IC50 in [1] was 7700 nM. In the test with Rattus norvegicus [2], this molecule gave a Level of 66. Moreover, the Ratio was 9280 in test [3] and 361 in [4].
For `Cc1cc(C)cc(CCN(CC(=O)NC(CCCNC=N)B(O)O)C(=O)CCc2ccccc2)c1` (stereo unspecified), the values for the Ki at Coagulation factor X and at Prothrombin were 30 nM and 0.37 nM, respectively.
For `N/C=N/CCCC(NC(=O)CN(CCc1ccccc1)C(=O)CCc1ccccc1)B(O)O` (stereo unspecified), half-maximal inhibition in [1] (IC50) was put at 2730 nM. For the same molecule, in the test with Rattus norvegicus [2], the Level amounted to 55. Further, the Ratio in test [3] amounted to 3070; in [4], 25.
In test [1], `Cc1cc(C)cc(CCN(CC(=O)NC(CCCN=C(N)N)B(O)O)C(=O)CCc2ccccc2)c1` (stereo unspecified) gave an IC50 of under 40 nM. In addition, the Ratio in test [3] is under 69; in test [4], 26.
For the molecule `CC(C)(CN(CC(=O)NC(CCCN=C(N)N)B(O)O)C(=O)CCc1ccccc1)c1ccccc1` (stereo unspecified), inhibition in test [1] was half-maximal at 130 nM (IC50). In addition, the BP in the test with Rattus norvegicus [7] was over 40 mmHg. Besides, the Level in the test with Rattus norvegicus [2] worked out at 211. For the same molecule, the Ratio amounted to 2170 in [3] and 1650 in test [4].

In general, Ki refers to the equilibrium dissociation constant of an inhibitor or competing ligand from its target. Usually IC50 stands for the point on the concentration scale where inhibition reaches its midpoint.
